Tests used:
Klebsiella pneumoniae = assay: Broth microdilution MIC (Example 12)
Pseudomonas aeruginosa [1] = settings: P. aeruginosa ATCC 27853, QC organism; cited from earlier work
Pseudomonas aeruginosa [2] = assay: Broth microdilution MIC (Example 12)
Escherichia coli [3] = settings: E. coli ATCC 25922, QC organism; cited from earlier work
Escherichia coli [4] = assay: Broth microdilution MIC (Example 12)
Acinetobacter baumannii = assay: Broth microdilution MIC (Example 12)

CC(C)(O/N=C(\C(=O)N[C@@H]1C(=O)N2C(C(=O)[O-])=C(C[n+]3ccccc3)CS[C@H]12)c1csc(N)n1)C(=O)O [CAZ]
4 µg/mL: MIC (Klebsiella pneumoniae; Klebsiella pneumoniae CDC 126, ESBL/KPC) | MIC (Klebsiella pneumoniae; Klebsiella pneumoniae MMX 9029, ESBL)
2 µg/mL: MIC (Pseudomonas aeruginosa [2]; P. aeruginosa ATCC 27853, QC organism)
64 µg/mL: MIC (Pseudomonas aeruginosa [2]; Pseudomonas aeruginosa CDC 230, VIM/OXA) | MIC (Pseudomonas aeruginosa [2]; Pseudomonas aeruginosa CDC 356, KPC) | MIC (Pseudomonas aeruginosa [2]; Pseudomonas aeruginosa CDC 516, KPC/AmpC) | MIC (Escherichia coli [4]; Escherichia coli CDC 451, KPC) | MIC (Acinetobacter baumannii; Acinetobacter baumannii CDC 273, ESBL/OXA) | MIC (Acinetobacter baumannii; Acinetobacter baumannii CDC 284, ESBL/OXA) | MIC (Acinetobacter baumannii; Acinetobacter baumannii CDC 307, OXA) | MIC (Acinetobacter baumannii; Acinetobacter baumannii CDC 308, ESBL/OXA)
0.25 µg/mL: MIC (Escherichia coli [4]; E. coli ATCC 25922, QC organism)
(0.06-0.5) μg/mL: MIC, QC range (Escherichia coli [3])
(1-4) μg/mL: MIC, QC range (Pseudomonas aeruginosa [1])
>64 µg/mL: MIC (Klebsiella pneumoniae; K. pneumoniae ATCC BAA-1705, QC organism) | MIC (Klebsiella pneumoniae; Klebsiella pneumoniae ATCC BAA-1705, ESBL/KPC) | MIC (Klebsiella pneumoniae; Klebsiella pneumoniae CDC 112, KPC) | MIC (Klebsiella pneumoniae; Klebsiella pneumoniae CDC 113, ESBL/KPC) | MIC (Klebsiella pneumoniae; Klebsiella pneumoniae CDC 115, ESBL/KPC) | MIC (Klebsiella pneumoniae; Klebsiella pneumoniae CDC 120, ESBL/KPC) | MIC (Klebsiella pneumoniae; Klebsiella pneumoniae CDC 129, ESBL/KPC) | MIC (Klebsiella pneumoniae; Klebsiella pneumoniae CDC 135, ESBL/VIM) | MIC (Klebsiella pneumoniae; Klebsiella pneumoniae CDC 138, ESBL/NDM) | MIC (Klebsiella pneumoniae; Klebsiella pneumoniae CDC 158, ESBL/NDM/OXA) | MIC (Pseudomonas aeruginosa [2]; Pseudomonas aeruginosa CDC 231, KPC/OXA) | MIC (Pseudomonas aeruginosa [2]; Pseudomonas aeruginosa CDC 241, IMP/OXA) | MIC (Pseudomonas aeruginosa [2]; Pseudomonas aeruginosa CDC 246, NDM/OXA) | MIC (Pseudomonas aeruginosa [2]; Pseudomonas aeruginosa CDC 250, NDM/OXA) | MIC (Pseudomonas aeruginosa [2]; Pseudomonas aeruginosa CDC 439, IMP) | MIC (Pseudomonas aeruginosa [2]; Pseudomonas aeruginosa CDC 457, VIM) | MIC (Escherichia coli [4]; Escherichia coli ATCC BAA-2471, NDM) | MIC (Escherichia coli [4]; Escherichia coli CDC 114, ESBL/KPC) | MIC (Escherichia coli [4]; Escherichia coli CDC 118, ESBL/NDM) | MIC (Escherichia coli [4]; Escherichia coli CDC 435, NDM) | MIC (Escherichia coli [4]; Escherichia coli CDC 503, ESBL/NDM) | MIC (Escherichia coli [4]; Escherichia coli MMX 5755, ESBL) | MIC (Escherichia coli [4]; Escherichia coli MMX 5756, ESBL) | MIC (Acinetobacter baumannii; Acinetobacter baumannii CDC 274, ESBL/OXA) | MIC (Acinetobacter baumannii; Acinetobacter baumannii CDC 275, ESBL/OXA) | MIC (Acinetobacter baumannii; Acinetobacter baumannii CDC 277, ESBL/OXA) | MIC (Acinetobacter baumannii; Acinetobacter baumannii CDC 311, OXA) | MIC (Acinetobacter baumannii; Acinetobacter baumannii CDC 312, OXA) | MIC (Acinetobacter baumannii; Acinetobacter baumannii CDC 313, ESBL/OXA) | MIC (Acinetobacter baumannii; Acinetobacter baumannii NCTC 13304, OXA)
32 µg/mL: MIC (Pseudomonas aeruginosa [2]; Pseudomonas aeruginosa CDC 444, VIM) | MIC (Pseudomonas aeruginosa [2]; Pseudomonas aeruginosa CDC 518, KPC/AmpC) | MIC (Escherichia coli [4]; Escherichia coli MMX 5745, KPC)
16 µg/mL: MIC (Escherichia coli [4]; Escherichia coli MMX 5758, ESBL)
0.12 µg/mL: MIC (Escherichia coli [4]; E. coli ATCC 35218, QC organism) | MIC (Escherichia coli [4]; Escherichia coli ATCC 35218, ESBL)

— US12186283B2, “Bismuth-thiol compositions and methods of use” (Microbion Corporation, priority 2018, dated 2025)
